Legend:
[1] = tested on: red blood cell (RBC) deformability; conditions: in vivo; cited from earlier work
[2] = tested on: patients suffering from Type I diabetes with overt diabetic nephropathy; test: Same clinical study: 24 hour urinary protein excretion; assay type: in vivo, human
Protocol: (§1) Renal function was measured every three months using serum creatinine levels, and creatinine clearance rates. In addition, the glomerular filtration rate was measured at entry and every six months. Study participants were treated at one of two dosage levels, (150 mg and 300 mg B.I.D.).
(FIG. 1). The reduction was generally first observed at the first post-randomization evaluation (at three months) and increased in magnitude over the duration of the study. […] (FIG. 2).

[3] = tested on: patients suffering from Type I diabetes with overt diabetic nephropathy; test: Multicenter, randomized, double-blind, placebo-controlled study: time to doubling of baseline serum creatinine; assay type: in vivo, human
Protocol: as §1
Time to doubling of baseline serum creatinine was measured. Study participants were also treated with standard measures for blood pressure control, and diabetes management, including insulin treatment, diet, and exercise. Serum creatinine levels were made at baseline and randomization visits, at the end of weeks 1-6, the end of month 2, the end of month 3, and then every 3 months for the remainder of the study. “Baseline serum creatinine” was the mean of the levels at the baseline and randomization visits. If the level at any subsequent visit was at least two times the baseline, and was confirmed by a second measurement, the patient was considered to have experienced a doubling of baseline serum creatinine. Serum creatinine levels were determined by a clinical laboratory (SciCor Inc., 8211 SciCor Drive, Indianapolis, Ind. 46214-2985).

[4] = tested on: patients suffering from Type I diabetes with overt diabetic nephropathy; test: Same clinical study: progression of diabetic retinopathy, three or more steps in ETDRS scale; assay type: in vivo, human
diabetic rats = conditions: cited from earlier work
[5] = tested on: streptozotocin-diabetic rat; conditions: streptozotocin-diabetic rat model; cited from earlier work
kidney = conditions: in vivo; cited from earlier work

Q: What does the source list for N=C(N)NN [Pimagedine, aminoguanidine]?
A: Diabetes-induced changes in the deformability of red blood cells [1]: prevent; 24 hour urinary protein excretion ([2]; high dose (300 mg B.I.D.)): statistically significant reductions; 24 hour urinary protein excretion ([2]; low dose (150 mg B.I.D.)): statistically significant reductions; Effect on proteinuria ([2]; patients with a baseline serum creatinine of less than 1.5 mg/dL compared with whole population): greater effect; Patients with adjudicated doubling of serum creatinine (%) ([3]; Baseline serum creatinine less than 1.5 mg/dL, Combined): (10%); Odds ratio, doubling of serum creatinine ([3]; Baseline serum creatinine less than 1.5 mg/dL, Combined versus placebo): 0.59; Patients with adjudicated doubling of serum creatinine (%) ([3]; Baseline serum creatinine less than 1.5 mg/dL, High Dose): (10%); Odds ratio, doubling of serum creatinine ([3]; Baseline serum creatinine less than 1.5 mg/dL, High Dose versus placebo): 0.52; Patients with adjudicated doubling of serum creatinine (%) ([3]; Baseline serum creatinine less than 1.5 mg/dL, Low Dose): (11%); Odds ratio, doubling of serum creatinine ([3]; Baseline serum creatinine less than 1.5 mg/dL, Low Dose versus placebo): 0.64; Patients with adjudicated doubling of serum creatinine (%) ([3]; Combined doses): (20%); Odds ratio, doubling of serum creatinine ([3]; Combined versus placebo): 0.73; Patients with adjudicated doubling of serum creatinine (%) ([3]; High Dose (300 mg B.I.D.), listed as pimagendine): 20%; Odds ratio, doubling of serum creatinine ([3]; High Dose versus placebo): 0.73; Patients with adjudicated doubling of serum creatinine (%) ([3]; Low Dose (150 mg B.I.D.)): (20%); Patients with adjudicated doubling of serum creatinine (%) ([3]; Low Dose (150 mg B.I.D.), listed as pimagendine): 20%; Odds ratio, doubling of serum creatinine ([3]; Low Dose versus placebo): 0.72; Reduction in the risk of doubling serum creatinine ([3]; all patients, versus placebo): 29%; Patients with adjudicated doubling of serum creatinine (%) ([3]; high dose (300 mg B.I.D.)): (20%); Reduction of the risk of doubling serum creatinine ([3]; patients with a baseline serum creatinine of less than 1.5 mg/dL): 63%; % of patients with a ≧ 3 step progression in ETDRS score ([4]; Combined): (10%); Logistic regression model odds ratio, ≧ 3 step retinopathy progression ([4]; Combined versus placebo): 0.53; % of patients with a ≧ 3 step progression in ETDRS score ([4]; High Dose): (8%); Logistic regression model odds ratio, ≧ 3 step retinopathy progression ([4]; High Dose versus placebo): 0.68; % of patients with a ≧ 3 step progression in ETDRS score ([4]; Low Dose): (11%); Logistic regression model odds ratio, ≧ 3 step retinopathy progression ([4]; Low Dose versus placebo): 0.58; Incidence of progression of retinopathy from baseline to endpoint ([4]; progression of three or more steps in ETDRS scale): decreased; Aortic wall protein cross-linking (diabetic rats): diminishes; Increased glomerular basement membrane thickness [5]: prevented; Immunoglobulin trapping in the kidney (kidney): reduction
